Experimental data taken from PubChem BioAssay AID2060497 (Molecular Pharmacology Branch, DTP, NCI, 2025).

System: 317291-083-R-J1-PDC complex spheroids, viability
Experiment: Anticancer human tumor 317291-083-R-J1-PDC patient-derived soft tissue sarcoma cell line growth inhibition [GQUAD]
Conditions: for IC50: curve of first compound; for viability, T/C: stronger effect = lower value
In short: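 Tumor cells were grown as complex spheroids with HUVEC endothelial cells and mesenchymal stem cells as stroma. G-quadruplex stabilizers were combined with targeted agents over half-log dilutions from near the clinical Cmax, or from 10 microM.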

[1] = second compound 0.0316 µM, first compound 0.0316 µM
[2] = second compound 0.0316 µM, first compound 0.1 µM
[3] = second compound 0.0316 µM, first compound 0.316 µM
[4] = second compound 0.0316 µM, first compound 1 µM
[5] = second compound 0.0316 µM, first compound 3.16 µM
[6] = second compound 0.0316 µM, first compound 10 µM
[7] = second compound 0.1 µM, first compound 0.0316 µM
[8] = second compound 0.1 µM, first compound 0.1 µM
[9] = second compound 0.1 µM, first compound 0.316 µM
[10] = second compound 0.1 µM, first compound 1 µM
[11] = second compound 0.1 µM, first compound 3.16 µM
[12] = second compound 0.1 µM, first compound 10 µM
[13] = second compound 0.316 µM, first compound 0.0316 µM
[14] = second compound 0.316 µM, first compound 0.1 µM
[15] = second compound 0.316 µM, first compound 0.316 µM
[16] = second compound 0.316 µM, first compound 1 µM
[17] = second compound 0.316 µM, first compound 3.16 µM
[18] = second compound 0.316 µM, first compound 10 µM
[19] = second compound 1 µM, first compound 0.0316 µM
[20] = second compound 1 µM, first compound 0.1 µM
[21] = second compound 1 µM, first compound 0.316 µM
[22] = second compound 1 µM, first compound 1 µM
[23] = second compound 1 µM, first compound 3.16 µM
[24] = second compound 1 µM, first compound 10 µM
[25] = second compound 3.16 µM, first compound 0.0316 µM
[26] = second compound 3.16 µM, first compound 0.1 µM
[27] = second compound 3.16 µM, first compound 0.316 µM
[28] = second compound 3.16 µM, first compound 1 µM
[29] = second compound 3.16 µM, first compound 3.16 µM
[30] = second compound 3.16 µM, first compound 10 µM
[31] = second compound 10 µM, first compound 0.0316 µM
[32] = second compound 10 µM, first compound 0.1 µM
[33] = second compound 10 µM, first compound 0.316 µM
[34] = second compound 10 µM, first compound 1 µM
[35] = second compound 10 µM, first compound 3.16 µM
[36] = second compound 10 µM, first compound 10 µM
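Note: spheroids exposed to compounds for one week before readout.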
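Throughout, for viability, T/C: percent viability relative to DMSO vehicle wells taken as 100%.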

CC1COCCN1c1cc(-c2ccnn2C)c2ccnc(-c3ccn[nH]3)c2n1 (stereo not drawn) + Cc1cnc(CNC(=O)c2c(=O)c3ccc(N4CCCN(C)CC4)nc3n3c2sc2ccccc23)cn1
IC50 (second compound 0.0316 µM): < 31.6 nM
IC50 (second compound 0.1 µM): 39.5 nM
IC50 (second compound 0.316 µM): < 31.6 nM
IC50 (second compound 1 µM): < 31.6 nM
IC50 (second compound 3.16 µM): < 31.6 nM
IC50 (second compound 10 µM): < 31.6 nM
viability, T/C [1]: 49.6%
viability, T/C [2]: 19.1%
viability, T/C [3]: 13%
viability, T/C [4]: 10.9%
viability, T/C [5]: 23.9%
viability, T/C [6]: 12.7%
viability, T/C [7]: 59%
viability, T/C [8]: 12.5%
viability, T/C [9]: 9.96%
viability, T/C [10]: 15.6%
viability, T/C [11]: 11.6%
viability, T/C [12]: 11.4%
viability, T/C [13]: 35.6%
viability, T/C [14]: 14.6%
viability, T/C [15]: 12.3%
viability, T/C [16]: 11%
viability, T/C [17]: 13.2%
viability, T/C [18]: 16.6%
viability, T/C [19]: 25.1%
viability, T/C [20]: 25.1%
viability, T/C [21]: 11.3%
viability, T/C [22]: 9.59%
viability, T/C [23]: 20.1%
viability, T/C [24]: 11.5%
viability, T/C [25]: 11.3%
viability, T/C [26]: 8.19%
viability, T/C [27]: 9.69%
viability, T/C [28]: 12.1%
viability, T/C [29]: 17.1%
viability, T/C [30]: 11.5%
viability, T/C [31]: 11.8%
viability, T/C [32]: 11.6%
viability, T/C [33]: 13.7%
viability, T/C [34]: 8.98%
viability, T/C [35]: 11.4%
viability, T/C [36]: 18.6%

CC1COCCN1c1cc(C2(O)CC3CCC(C2)O3)c2cnn(-c3ccn[nH]3)c2n1 (stereo not drawn) + Cc1cnc(CNC(=O)c2c(=O)c3ccc(N4CCCN(C)CC4)nc3n3c2sc2ccccc23)cn1
IC50 (second compound 0.0316 µM): < 31.6 nM
IC50 (second compound 0.1 µM): < 31.6 nM
IC50 (second compound 0.316 µM): < 31.6 nM
IC50 (second compound 1 µM): < 31.6 nM
IC50 (second compound 3.16 µM): < 31.6 nM
IC50 (second compound 10 µM): < 31.6 nM
viability, T/C [1]: 32.1%
viability, T/C [2]: 22.9%
viability, T/C [3]: 11.1%
viability, T/C [4]: 10.5%
viability, T/C [5]: 13%
viability, T/C [6]: 3.33%
viability, T/C [7]: 25.9%
viability, T/C [8]: 22.6%
viability, T/C [9]: 10.6%
viability, T/C [10]: 11.6%
viability, T/C [11]: 28.6%
viability, T/C [12]: 2.82%
viability, T/C [13]: 18.4%
viability, T/C [14]: 16.2%
viability, T/C [15]: 26.7%
viability, T/C [16]: 11.9%
viability, T/C [17]: 11.1%
viability, T/C [18]: 2.89%
viability, T/C [19]: 25.6%
viability, T/C [20]: 18.5%
viability, T/C [21]: 12.9%
viability, T/C [22]: 12.1%
viability, T/C [23]: 11.7%
viability, T/C [24]: 5.12%
viability, T/C [25]: 14.8%
viability, T/C [26]: 14.6%
viability, T/C [27]: 11.1%
viability, T/C [28]: 12.7%
viability, T/C [29]: 15.6%
viability, T/C [30]: 0.73%
viability, T/C [31]: 12.7%
viability, T/C [32]: 9.14%
viability, T/C [33]: 16.9%
viability, T/C [34]: 24.7%
viability, T/C [35]: 12.1%
viability, T/C [36]: 2.17%

CC1COCCN1c1cc(C2(S(C)(=N)=O)CC2)nc(-c2ccnc3[nH]ccc23)n1 (stereo not drawn) + Cc1cnc(CNC(=O)c2c(=O)c3ccc(N4CCCN(C)CC4)nc3n3c2sc2ccccc23)cn1
IC50 (second compound 0.0316 µM): 1280 nM
IC50 (second compound 0.1 µM): 493 nM
IC50 (second compound 0.316 µM): < 31.6 nM
IC50 (second compound 1 µM): < 31.6 nM
IC50 (second compound 3.16 µM): < 31.6 nM
IC50 (second compound 10 µM): < 31.6 nM
viability, T/C [1]: 97.2%
viability, T/C [2]: 99.6%
viability, T/C [3]: 69.2%
viability, T/C [4]: 67.6%
viability, T/C [5]: 19%
viability, T/C [6]: 10.4%
viability, T/C [7]: 66.2%
viability, T/C [8]: 111%
viability, T/C [9]: 64.6%
viability, T/C [10]: 34.4%
viability, T/C [11]: 22.5%
viability, T/C [12]: 23.2%
viability, T/C [13]: 44%
viability, T/C [14]: 42.2%
viability, T/C [15]: 42.8%
viability, T/C [16]: 35%
viability, T/C [17]: 12.2%
viability, T/C [18]: 18.2%
viability, T/C [19]: 34.8%
viability, T/C [20]: 60.1%
viability, T/C [21]: 32.2%
viability, T/C [22]: 20.8%
viability, T/C [23]: 25.3%
viability, T/C [24]: 14.8%
viability, T/C [25]: 16.2%
viability, T/C [26]: 22.4%
viability, T/C [27]: 18%
viability, T/C [28]: 26.7%
viability, T/C [29]: 15.4%
viability, T/C [30]: 14.6%
viability, T/C [31]: 39.2%
viability, T/C [32]: 19.8%
viability, T/C [33]: 46.7%
viability, T/C [34]: 9.84%
viability, T/C [35]: 20.8%
viability, T/C [36]: 9.87%

COc1ccc([C@@H](O)c2cc(-c3ncnc4cc(N5CCOCC5)ccc34)c(F)cc2Cl)nn1 + Cc1cnc(CNC(=O)c2c(=O)c3ccc(N4CCCN(C)CC4)nc3n3c2sc2ccccc23)cn1
IC50 (second compound 0.0316 µM): 2030 nM
IC50 (second compound 0.1 µM): 163 nM
IC50 (second compound 0.316 µM): 61.9 nM
IC50 (second compound 1 µM): < 31.6 nM
IC50 (second compound 3.16 µM): < 31.6 nM
IC50 (second compound 10 µM): < 31.6 nM
viability, T/C [1]: 108%
viability, T/C [2]: 92.1%
viability, T/C [3]: 68.2%
viability, T/C [4]: 66.6%
viability, T/C [5]: 41.5%
viability, T/C [6]: 30.7%
viability, T/C [7]: 85.9%
viability, T/C [8]: 50.3%
viability, T/C [9]: 49.4%
viability, T/C [10]: 35.1%
viability, T/C [11]: 24.1%
viability, T/C [12]: 31.8%
viability, T/C [13]: 58.2%
viability, T/C [14]: 42.9%
viability, T/C [15]: 38.1%
viability, T/C [16]: 22.4%
viability, T/C [17]: 24.2%
viability, T/C [18]: 19.8%
viability, T/C [19]: 41%
viability, T/C [20]: 25.3%
viability, T/C [21]: 19.6%
viability, T/C [22]: 23.4%
viability, T/C [23]: 33.7%
viability, T/C [24]: 22.7%
viability, T/C [25]: 40.1%
viability, T/C [26]: 41.4%
viability, T/C [27]: 19.8%
viability, T/C [28]: 20.6%
viability, T/C [29]: 23%
viability, T/C [30]: 16.9%
viability, T/C [31]: 19.1%
viability, T/C [32]: 40.8%
viability, T/C [33]: 17.7%
viability, T/C [34]: 17.3%
viability, T/C [35]: 18.6%
viability, T/C [36]: 19.9%
